Tests used:
[1] = log P by reverse phase HPLC; type: physicochemical; details: RP-HPLC retention time vs toluene and triphenylene; n = 4; read-out: Direct log P
Text: Reverse phase HPLC (RP-HPLC) has been previously used to measure the logarithm of the octanol-water partition coefficient (log P) of many compounds [11]. To obtain the log P values recorded herein, the retention times of the compounds of interest (Table 1) along with the retention times of internal standards (toluene and triphenylene) were utilized. The resulting quantities were then substituted into Equation 1: [drawing 1] (1) where the abbreviation tol refers to toluene, triph to triphenylene, and t to the retention time. Details concerning how this equation was derived have been described by Donovan and Pescatore.
HPLC recordings were achieved using a Hewlett Packard HP/Agilent 1100 HPLC system connected to a 1 cm × 4.6 mm, 5 µm aPHera™ C18 Polymer HPLC column (catalog number 56130AST). Colorimetric assays were performed on a Molecular Devices Vmax microplate reader.

[2] = tested on: PMA induced mouse ear edema; test: phorbol myristate acetate (PMA) induced mouse ear edema assay; type: in vivo; details: topical 50 µg/ear with PMA 2 µg/ear, 3 h 20 min; (1/SA) in milligrams of inhibited edema per mol of drug; n = 10
Protocol: The compounds were then assessed using the standard phorbol myristate acetate (PMA) induced mouse ear edema assay to determine their anti-inflammatory specific activity. In this assay, the specific activity of the drug, SA, is expressed as log(1/SA). For the mouse ear model, the molar concentration of the drug was calculated using Equation 2: SA = (mol of drug) (∆ in edema from control)^−1(2) where the difference in edema from control, ∆, refers to the difference in the average weight of the mouse ear between treated and untreated biopsies. The outcome, (1/SA), is expressed in units of milligrams of inhibited edema per mol of drug. […] Note Table 1.
Male Swiss Webster albino mice were briefly anesthetized with halothane. Compounds were topically applied to the inside pinnae of the ears of the mice in a solution containing the edema-causing irritant PMA. PMA alone (2 µg/ear) or in combination with the test compound (50 µg/ear) were dissolved in acetone and applied to the left ears (5 mice per treatment group, n = 10/compound), and acetone alone was applied to all right ears. After 3 h and 20 min incubation, the mice were euthanized, the ears removed and a 6 mm diameter biopsy was taken from the center of each ear and immediately weighed. Edema was measured by subtracting the weight of the right ear (acetone control) from the weight of the left ear (treated). Compounds that were not soluble in 100% acetone were dissolved in 20% ethanol: 80% acetone v/v. Results were recorded as % decrease (inhibition) in edema relative to the PMA control group edema.

wound healing = tested on: wound healing; parameters: method as in PMID 20363514; details: topical; ref [5]; cited from earlier work
early wound repair = tested on: early wound repair; parameters: method as in ref [7] = [7]; 7. Vimrx Pharmaceuticals New Drug Application VM 301 for Use in Phase I/IIA Clinical Trials IND 60,606 12 7 2000; details: Phase II, double blind; ref [7]; cited from earlier work
HUVEC cells [3] = test: WST-1 cell proliferation assay; type: cell-based, human
Protocol: Figure 4 PsA Potently Activates HUVEC Proliferation. […] Note saturation kinetics. Cytotoxicity is illustrated as a vertical dashed line at 1.5 × 10^−5 M in all vehicles tested. The percentage increase was calculated as [100 × (T/C)] where T/C is defined as […]. Data are presented as mean ± SEM (n = 16).
(§1) For each experiment cells were split at 80% confluence. All experiments were conducted between generations 4 and 10.
HUVEC were harvested from a T-75 plate by trypsinization and resuspended in EGM-2 complete culture media. Cells were plated at 500 cells per well of a 96-well plate and incubated overnight at 37 °C in a 5% CO2 atmosphere. EGM-2 complete culture media was removed and replaced with starvation media for 8 h. During this time, drug dilutions were prepared in growth factor depleted media. Starvation media was replaced with drug dilution in growth factor depleted media and incubated at 37 °C in a 5% CO2 atmosphere. After 41 h, 10 µL of WST-1 reagent was added to each well and incubated for 1 h. Plates were then read on a multiplate reader at 450 nm with background reference of 650 nm.

HUVEC cells [4] = test: scratch migration assay; type: cell-based, human; details: 3.9 × 10^−8 M PsA in 0.05% HPβCD, depleted media, over 10 h; n = 16
Protocol: The in vitro scratch assay is commonly used to simulate cellular events that accompany the presence of a wound. Here, a thin scratch made in a cellular monolayer mimics the wound. The migration of cells in response to the scratch is then monitored using microscopic images at various time points to determine the rate of migration.
as §1
HUVEC were harvested from a T-75 plate by trypsinization and resuspended in EGM-2 complete culture media and were plated into T-25 cell culture flasks and allowed to grow to approx 90% confluence. EGM-2 complete culture media was then removed and replaced with starvation media for 8 h. A uniform scratch in the monolayer was then produced using a sterile pipette tip approximately 500 µm in width. Starvation media was replaced with 5 mL of either PsA in drug dosing media, or HPβCD in drug dosing media, or HPβCD in EGM-2 complete culture media. Microscopic images were taken at 400 times magnification every 5 min beginning at t = 0, and continuing until t = 10 h. Images were analyzed by determining the distance between cells on either side of scratch over time. Percent scratch closure was set to be a function of 1 − (average distance at each time point/average width of scratch).

[5] = stability of the cyclodextrin inclusion complex by HPLC and NMR; type: physicochemical; details: PsA inclusion complex in HPβCD; observed by HPLC and NMR
Protocol: Hydroxypropyl-beta-cyclodextrin (HPβCD) was added to DI-water at a concentration of 20% w/v. The mixture was then vortexed and sonicated briefly to yield a colorless, transparent, slightly viscous liquid. Separately, a given quantity of pseudopterosin A (PsA) was then solubilized in 100% methanol to yield a yellow, transparent liquid. An aliquot of this solution was then added to a culture tube and dried under inert atmosphere yielding an off-white solid. The previously prepared hydroxypropyl-beta-cyclodextrin solution was then added and vortexed for 10 min. The mixture was orbitally shaken at 4 °C for at least 7 days prior to use to ensure equilibration of the cyclodextrin drug complex. […] Stability was conserved at least 14 days, as observed by HPLC and NMR.

aqueous solubility = type: physicochemical; details: without DMSO, Cremophor or cyclodextrin
Text: […] Reverse phase HPLC was utilized as described in Section 3.3 above to confirm the quantity of solubilized drug that remained unchanged between formulations.

[6] = tested on: human adenosine A1 receptor; parameters: method as in doi:10.1016/j.tet.2009.09.021; details: DMSO formulation; high amount of non-specific binding; ref [4]; cited from earlier work
[7] = tested on: human adenosine A2A receptor; parameters: method as in doi:10.1016/j.tet.2009.09.021; details: DMSO formulation; high amount of non-specific binding; ref [4]; cited from earlier work
[8] = tested on: human adenosine A2B receptor; parameters: method as in doi:10.1016/j.tet.2009.09.021; details: DMSO formulation; high amount of non-specific binding; ref [4]; cited from earlier work
[9] = tested on: human adenosine A3 receptor; parameters: method as in doi:10.1016/j.tet.2009.09.021; details: DMSO formulation; high amount of non-specific binding; ref [4]; cited from earlier work
human neutrophils = tested on: human neutrophils; parameters: method as in ref [3] = [3]; 3. Luedke E.S. The Identification and Characterization of Pseudopterosins: Anti-Inflammatory Agents Isolated from the Gorgonian Coral Pseudopterogorgia elisabethae Ph.D. Thesis University of Californi; details: in vitro; ref [3]; cited from earlier work
HUVEC cells [10] = tested on: HUVEC cells; parameters: method as in PMID 2875457, PMID 3574294, PMID 21556163; details: all formulation systems tested; ref [1],[22],[23]; cited from earlier work
HUVEC cells [11] = test: HUVEC cytotoxicity elicited by drug formulations (LDH release); details: vehicle alone: 0.02% DMSO, 0.016% Cremophor EL, 0.05% HPβCD; 42 h, growth factor depleted media, 37 °C; n = 4
Protocol: HUVEC LDH release with (A) 0.02% DMSO (B) 0.016% Cremophor EL and (C) 0.05% HPβCD after 42 h in growth factor depleted media at 37 °C. Data are presented as mean ± SEM (n = 4).
Dimethylsulfoxide (DMSO) is the most widely utilized solvent, and is used extensively in biological assays for attaining aqueous solubility for non-polar drug molecules. To determine the potential cytotoxic effects associated with DMSO, Cremophor EL, and HPβCD in a HUVEC system, we report three conditions that were chosen after considering the minimum required vehicle concentration for PsA (drug) solubility.
All cell culture experiments were performed using HUVEC cells initially seeded at 3 × 10^5 cells/75 cm^2 flask and fed every 1–2 days with fresh EGM-2 complete culture media (EBM-2 basal media with hVEGF, hFGF, hIGF, hEGF, hydrocortisone, ascorbic acid, heparin, 2% FBS, and GA-1000). For each experiment cells were split at 80% confluence. All experiments were conducted between generations 4 and 10. Starvation media consisted of EBM-2 basal media with 0.1% FBS, and GA-1000 (antibiotic mixture). Growth factor depleted media consisted of EBM-2 basal media with 2% FBS, hydrocortisone, ascorbic acid, heparin, and GA-1000.

Compound: CC(C)=CC1CC(C)C2CCC(C)C3=C2C1=C(C)C(=O)C31OC2OC(C)C(O)C(O)C2O1 (stereo not shown) [Analog 1, pseudopterosin keto ketal]
- chromatographic logP [1]: 3.95 ± 0.02
- log(1/SA) (anti-inflammatory specific activity) [2]: 7.63 ± 0.06 mg/mol

Compound: COc1c(C)c2c3c(c1O[C@@H]1OC[C@@H](O)[C@H](O)[C@H]1O)[C@@H](C)CC[C@@H]3[C@@H](C)C[C@@H]2C=C(C)C [Analog 3, PsA methyl ether]
- chromatographic logP [1]: 4.37 ± 0.02
- efficacy in wound healing (wound healing): topical efficacy
- effect on early wound repair above vehicle alone (early wound repair): increased angiogenesis, granulation, and re-epithelialization

Compound: CC(C)=C[C@H]1C[C@H](C)[C@H]2CC[C@H](C)c3c(O[C@@H]4OC[C@@H](O)[C@H](O)[C@H]4O)c(O)c(C)c1c32 [Analog 4, Pseudopterosin A]
- chromatographic logP [1]: 4.42 ± 0.06
- log(1/SA) (anti-inflammatory specific activity) [2]: 8.08 ± 0.01 mg/mol
- increase in proliferation (HUVEC cells [3]; 1.0 × 10^−7 M PsA in HPβCD): 25%
- increase in potency of HPβCD formulation over DMSO formulation (HUVEC cells [3]; HUVEC proliferation): 200 fold
- increased HUVEC proliferation (HUVEC cells [3]; PsA in 0.016% Cremophor EL, 42 h): 15%
- increase in proliferation (HUVEC cells [3]; PsA in 0.02% DMSO, 42 h, compared to DMSO alone): 30% ± 4.8%
- Kd (HUVEC cells [3]; PsA in 0.05% HPβCD, from analysis of proliferation dose response): 14.5 nM
- concentration at which cytotoxicity occurred (HUVEC cells [3]; all formulations/vehicles tested in HUVEC cells): ≥ 15 µM
- rate of HUVEC cell migration (HUVEC cells [4]): 9.98 ± 1.2 µm h^−1
- stability conserved [5]: at least 14 days
- solubility in an aqueous medium (aqueous solubility): low solubility
- binding affinity [6]: micromolar
- binding affinity [7]: micromolar
- binding affinity [8]: micromolar
- binding affinity [9]: micromolar
- effect on calcium ionophore induced degranulation and infiltration (human neutrophils): inhibited
- cytotoxic concentration (HUVEC cells [10]): > 10 µM

Compound: CC(C)=C[C@H]1C[C@H](C)[C@H]2CC[C@H](C)c3c(O[C@@H]4O[C@@H](C)[C@@H](O)[C@@H](O)[C@@H]4O)c(O)c(C)c1c32 [Analog 5, iso-PsE]
- chromatographic logP [1]: 4.59 ± 0.05
- log(1/SA) (anti-inflammatory specific activity) [2]: 8.02 ± 0.02 mg/mol

Compound: C[S+](C)[O-] [DMSO, Dimethylsulfoxide]
- LDH release (cytotoxicity) (HUVEC cells [11]): 18.4% ± 1.6%
